From the NIST ThermoML archive (doi:10.1021/je050050p)
Numbers after ± are expanded uncertainties.

Assay: xn = mol fraction of the nth substance listed
Conditions: Liquid, Vibrating tube method

Compound: CN(C)C=O [dimethylformamide] + O=C=O
- mass density (313.13 K, 8014 kPa, x2 = 0.6235): 949.79 ± 0.41 kg/m3
- mass density (313.13 K, 9041 kPa, x2 = 0.6235): 952.04 ± 0.41 kg/m3
- mass density (313.13 K, 10057 kPa, x2 = 0.6235): 954.25 ± 0.41 kg/m3
- mass density (313.13 K, 10998 kPa, x2 = 0.6235): 956.28 ± 0.41 kg/m3
- mass density (313.13 K, 11991 kPa, x2 = 0.6235): 958.34 ± 0.41 kg/m3
- mass density (313.13 K, 12985 kPa, x2 = 0.6235): 960.34 ± 0.41 kg/m3
- mass density (313.13 K, 14000 kPa, x2 = 0.6235): 962.36 ± 0.41 kg/m3
- mass density (313.13 K, 14996 kPa, x2 = 0.6235): 964.28 ± 0.41 kg/m3
- mass density (313.13 K, 16016 kPa, x2 = 0.6235): 966.23 ± 0.41 kg/m3
- mass density (313.13 K, 16993 kPa, x2 = 0.6235): 968.02 ± 0.41 kg/m3
- mass density (313.13 K, 18006 kPa, x2 = 0.6235): 969.86 ± 0.41 kg/m3
- mass density (313.13 K, 18988 kPa, x2 = 0.6235): 971.7 ± 0.41 kg/m3
- mass density (313.13 K, 20033 kPa, x2 = 0.6235): 973.47 ± 0.41 kg/m3
- mass density (313.13 K, 21061 kPa, x2 = 0.6235): 975.25 ± 0.41 kg/m3
- mass density (313.13 K, 22021 kPa, x2 = 0.6235): 976.88 ± 0.41 kg/m3
- mass density (313.13 K, 22996 kPa, x2 = 0.6235): 978.52 ± 0.41 kg/m3
- mass density (313.13 K, 24001 kPa, x2 = 0.6235): 980.14 ± 0.41 kg/m3
- mass density (313.13 K, 25034 kPa, x2 = 0.6235): 981.79 ± 0.41 kg/m3
- mass density (313.14 K, 9015 kPa, x2 = 0.8091): 920.03 ± 0.42 kg/m3
- mass density (313.14 K, 9992 kPa, x2 = 0.8091): 923.92 ± 0.42 kg/m3
- mass density (313.14 K, 10006 kPa, x2 = 0.9311): 835.47 ± 0.47 kg/m3
- mass density (313.14 K, 11003 kPa, x2 = 0.8091): 927.79 ± 0.42 kg/m3
- mass density (313.14 K, 11013 kPa, x2 = 0.9311): 846.13 ± 0.47 kg/m3
- mass density (313.14 K, 12022 kPa, x2 = 0.8091): 931.54 ± 0.42 kg/m3
- mass density (313.14 K, 12041 kPa, x2 = 0.9311): 855.75 ± 0.46 kg/m3
- mass density (313.14 K, 13011 kPa, x2 = 0.8091): 934.99 ± 0.42 kg/m3
- mass density (313.14 K, 13017 kPa, x2 = 0.9311): 864.01 ± 0.45 kg/m3
- mass density (313.14 K, 14003 kPa, x2 = 0.8091): 938.37 ± 0.42 kg/m3
- mass density (313.14 K, 14036 kPa, x2 = 0.9311): 871.87 ± 0.45 kg/m3
- mass density (313.14 K, 15006 kPa, x2 = 0.8091): 941.63 ± 0.42 kg/m3
- mass density (313.14 K, 15031 kPa, x2 = 0.9311): 878.95 ± 0.44 kg/m3
- mass density (313.14 K, 16000 kPa, x2 = 0.8091): 944.75 ± 0.41 kg/m3
- mass density (313.14 K, 16006 kPa, x2 = 0.9311): 885.43 ± 0.44 kg/m3
- mass density (313.14 K, 16988 kPa, x2 = 0.8091): 947.8 ± 0.41 kg/m3
- mass density (313.14 K, 17030 kPa, x2 = 0.9311): 891.82 ± 0.44 kg/m3
- mass density (313.14 K, 17988 kPa, x2 = 0.9311): 897.48 ± 0.44 kg/m3
- mass density (313.14 K, 18019 kPa, x2 = 0.8091): 950.82 ± 0.41 kg/m3
- mass density (313.14 K, 18996 kPa, x2 = 0.8091): 953.63 ± 0.41 kg/m3
- mass density (313.14 K, 19037 kPa, x2 = 0.9311): 903.28 ± 0.43 kg/m3
- mass density (313.14 K, 20022 kPa, x2 = 0.9311): 908.47 ± 0.43 kg/m3
- mass density (313.14 K, 20032 kPa, x2 = 0.8091): 956.51 ± 0.41 kg/m3
- mass density (313.14 K, 21000 kPa, x2 = 0.9311): 913.41 ± 0.43 kg/m3
- mass density (313.14 K, 21035 kPa, x2 = 0.8091): 959.25 ± 0.41 kg/m3
- mass density (313.14 K, 21995 kPa, x2 = 0.8091): 961.81 ± 0.41 kg/m3
- mass density (313.14 K, 22002 kPa, x2 = 0.9311): 918.23 ± 0.43 kg/m3
- mass density (313.14 K, 23016 kPa, x2 = 0.9311): 922.92 ± 0.43 kg/m3
- mass density (313.14 K, 23033 kPa, x2 = 0.8091): 964.52 ± 0.41 kg/m3
- mass density (313.14 K, 24006 kPa, x2 = 0.9311): 927.35 ± 0.43 kg/m3
- mass density (313.14 K, 24015 kPa, x2 = 0.8091): 966.98 ± 0.41 kg/m3
- mass density (313.14 K, 25006 kPa, x2 = 0.8091): 969.42 ± 0.44 kg/m3
- mass density (313.14 K, 25020 kPa, x2 = 0.9311): 931.7 ± 0.43 kg/m3
- mass density (313.15 K, 4032 kPa, x2 = 0.2876): 948.43 ± 0.41 kg/m3
- mass density (313.15 K, 5041 kPa, x2 = 0.2876): 949.39 ± 0.41 kg/m3
- mass density (313.15 K, 6004 kPa, x2 = 0.2876): 950.24 ± 0.41 kg/m3
- mass density (313.15 K, 6005 kPa, x2 = 0.4268): 955.61 ± 0.41 kg/m3
- mass density (313.15 K, 6022 kPa, x2 = 0.4461): 956.18 ± 0.41 kg/m3
- mass density (313.15 K, 6967 kPa, x2 = 0.2876): 951.12 ± 0.41 kg/m3
- mass density (313.15 K, 6991 kPa, x2 = 0.4461): 957.31 ± 0.41 kg/m3
- mass density (313.15 K, 7013 kPa, x2 = 0.4268): 956.75 ± 0.41 kg/m3
- mass density (313.15 K, 8002 kPa, x2 = 0.2876): 952.05 ± 0.41 kg/m3
- mass density (313.15 K, 8008 kPa, x2 = 0.4268): 957.9 ± 0.41 kg/m3
- mass density (313.15 K, 8024 kPa, x2 = 0.4461): 958.53 ± 0.41 kg/m3
- mass density (313.15 K, 9005 kPa, x2 = 0.2876): 952.94 ± 0.41 kg/m3
- mass density (313.15 K, 9006 kPa, x2 = 0.4461): 959.66 ± 0.41 kg/m3
- mass density (313.15 K, 9014 kPa, x2 = 0.4268): 958.99 ± 0.41 kg/m3
- mass density (313.15 K, 9998 kPa, x2 = 0.4461): 960.8 ± 0.41 kg/m3
- mass density (313.15 K, 10000 kPa, x2 = 0.2876): 953.81 ± 0.41 kg/m3
- mass density (313.15 K, 10006 kPa, x2 = 0.4268): 960.05 ± 0.41 kg/m3
- mass density (313.15 K, 10989 kPa, x2 = 0.4461): 961.9 ± 0.41 kg/m3
- mass density (313.15 K, 11017 kPa, x2 = 0.2876): 954.68 ± 0.41 kg/m3
- mass density (313.15 K, 11017 kPa, x2 = 0.4268): 961.14 ± 0.41 kg/m3
- mass density (313.15 K, 12006 kPa, x2 = 0.4268): 962.22 ± 0.41 kg/m3
- mass density (313.15 K, 12024 kPa, x2 = 0.2876): 955.56 ± 0.41 kg/m3
- mass density (313.15 K, 12025 kPa, x2 = 0.4461): 963.02 ± 0.41 kg/m3
- mass density (313.15 K, 13003 kPa, x2 = 0.4461): 964.12 ± 0.41 kg/m3
- mass density (313.15 K, 13004 kPa, x2 = 0.4268): 963.25 ± 0.41 kg/m3
- mass density (313.15 K, 13007 kPa, x2 = 0.2876): 956.41 ± 0.41 kg/m3
- mass density (313.15 K, 13997 kPa, x2 = 0.4268): 964.28 ± 0.41 kg/m3
- mass density (313.15 K, 13999 kPa, x2 = 0.4461): 965.2 ± 0.41 kg/m3
- mass density (313.15 K, 14004 kPa, x2 = 0.2876): 957.26 ± 0.41 kg/m3
- mass density (313.15 K, 14993 kPa, x2 = 0.4461): 966.26 ± 0.41 kg/m3
- mass density (313.15 K, 15003 kPa, x2 = 0.4268): 965.36 ± 0.41 kg/m3
- mass density (313.15 K, 15006 kPa, x2 = 0.2876): 958.1 ± 0.41 kg/m3
